{"source": "patent US20220268782A1", "about": "“METHODS FOR PREDICTING AND TREATING CARDIAC DYSFUNCTION” (INSERM (INSTITUT NATIONAL DE LA SANTÉ EAT DE LA RECHERCHE …, priority 2019, published 2022)", "type_in_all_cases": "cell-based", "key": {"C2C12 myoblasts [1]": {"tested_on": "C2C12 myoblasts", "assay": "Oxidative stress in C2C12 cells (CellROX cytosolic superoxide, MitoSOX mitochondrial superoxide, GSH)", "method": "(§1) C2C12 (ATCC® CRL-1772™) myoblasts maintained in DMEM supplemented with L-glutamine (2 mM), penicillin/streptomycin (1%) and 5% fetal bovine serum (FBS) were seeded either at a density of 5×10^4 cells (<50%) per well in 24-well plates or 10^4 cells in 4-well chamber slides. Cells were with L-phenylalanine (1-10 mM)+BH4 (10 μM) and incubation with increasing concentrations of N-acetylcysteine (0.5, 2.5, 5 mM) vs. vehicle overnight as indicated. Cells were analysed for oxidative stress with MitoSOX™ (mitochondrial superoxide; 5 μM, ThermoFisher Scientific), CellROX™ (cytosolic superoxide; 5 μM, ThermoFisher Scientific), gene or protein expression, or various metabolites (see below).\n(§2) Levels of reduced glutathione (GSH; ThermoFisher), phenylalanine (BioVision) and tyrosine (BioVision) were determined from cells or plasma, with respective agents/kits following the manufacturer's recommendations. Specifically, GSH levels were estimated with the aid of ThiolTracker™ Violet fluorescent probe (ThermoFisher). Plasma and liver phenylalanine levels were determined using an enzyme-coupled, fluorometric method (BioVision). Briefly, samples were deproteinized via trichloroacetate precipitation, neutralised, tyrosinase-treated (to remove tyrosine that may interfere) and diluted to fit in the standard curve. Fluorescence reading took place at 587 nm after excitation at 535 nm. Levels of tyrosine in cells or conditioned media were determined after deproteinization using 10 kDa cut-off columns with an enzyme-coupled, colorimetric method with reading at 491 nm (BioVision)."}, "C2C12 myoblasts [2]": {"tested_on": "C2C12 myoblasts", "assay": "PA-induced senescence in C2C12 myoblasts (immunoblot of senescence markers, EdU incorporation)", "conditions": "C2C12 cells", "method": "(§3) Cells were washed briefly with ice-cold 1×PBS, scraped in 400 μL T-PER lysis buffer (ThermoFisher) supplemented with 0.1 mM phenylmethylsulphonyl fluoride (PMSF) and protease/phosphatase inhibitor cocktail tablet (ThermoFisher). Pulverised tissue samples (20-30 mg) were lysed in the same buffer accelerated by sonication and passing through a 21 G needle. To pellet any debris, lysates were centrifuged at 10,000 g for 10 minutes at 4° C., with the supernatant transferred to fresh tubes. Protein concentrations were determined with Bradford assay (Biorad) and lysates were diluted to equal concentration with lysis buffer. Protein lysates were then mixed with Laemmli buffer, vortexed and heated to 95° C. for 5 min. Equal amounts of protein lysates in parallel with protein molecular weight marker (ThermoFisher) were loaded onto pre-cast polyacrylamide gels (Nupage 10 or 12% Bis Tris gel, Novex, Invitrogen) and separated by electrophoresis at 200V for 1 hour. Proteins were transferred onto polyvinylidene difluoride (PVDF) membrane (Invitrogen) using an electrophoretic transfer cell (Mini Trans-Blot, Bio-Rad) in ice-cold transfer buffer (48 mM Tris base, […], 0.1% SDS, 20% methanol (v/v)) at 300 mA for 2 hours. Membranes were blocked in 1× skimmed milk (ThermoFisher) for 1 hour at room temperature, followed by overnight incubation with primary antibody diluted in blocking buffer at 4° C. Next day membranes were washed, followed by 60 minutes incubation in the corresponding horseradish peroxidase (HRP)-conjugated secondary antibody diluted 1:2000-10000 in blocking buffer (all Abcam). Blots were developed using enhanced chemiluminescence (ECL) reagents (normal, Prime & Select) and digital images were acquired using an imaging system (Azure Biosystems). Membranes were usually stripped of antibodies and reprobed with an antibody targeting a protein serving as loading control (α-actinin for hearts & β-actin for all others). For this procedure, membranes were placed in Guanidine-HCl-based stripping solution (6M Guanidine-HCl, 0.2% Nonidet P-40, 0.1M β-mercaptoethanol, 20 mM Tris-HCl, pH 7.5 and 100 mM 2-mercaptoethanol) and incubated for 10 minutes at room temperature with gentle agitation, followed by extensive washing and re-blocking.^5\nas §1"}, "AML-12 hepatocytes": {"tested_on": "AML-12 hepatocytes", "assay": "AML-12 hepatocytes: p21, Pah immunoblot and tyrosine production", "conditions": "Nutlin3a vs. vehicle", "method": "as §3\nAML12 cells (ATCC® CRL-2254™) were maintained in DMEM/F-12 (1:1) culture media supplemented with 10% FBS, 10 μg/ml insulin, 5.5 μg/ml transferrin, 5 ng/ml selenium, 40 ng/ml dexamethasone and 1% penicillin/streptomycin. Cells were sub-cultivated from subconfluent flasks with a ratio from 1:4 to 1:8. For WB analysis, cells were plated on 6-well plates and harvested at 80-90% of confluence. AML12 cells were transfected with indicated siRNA (Table 2) at 80% confluence using Lipofectamine RNAiMAX Transfection Reagent (ThermoFischer Scientific 13778030) following the manufacturer's instructions. Transfection efficiency was constantly checked using BLOCK-IT Alexa Fluor Red Fluorescent Control (ThermoFischer Scientific 14750100).\nas §2"}}}
{"smiles": "N[C@@H](Cc1ccc(Cl)cc1)C(=O)O", "note": "(racemic) [4-CPA, 4-chlorophenylalanine]", "values": [{"measurement": "BH4 rescue of superoxide levels", "setting": "C2C12 myoblasts [1]; PA + BH4 + 4-CPA, FIG. 1f", "result": "prevented"}, {"measurement": "BH4 antagonism of PA-dependent senescence", "setting": "C2C12 myoblasts [2]; PA 5 mM + BH4 10 μM + 4-CPA 1.5 mM, FIG. 1c-d", "result": "reversed"}]}
{"smiles": "CC(=O)N[C@@H](CS)C(=O)O", "note": "[NAC, N-acetylcysteine]", "values": [{"measurement": "cytosolic superoxide levels under PA treatment", "setting": "C2C12 myoblasts [1]; PA plus co-treatment (BH4 10 μM or NAC), FIG. 1f", "result": "restored normal"}, {"measurement": "reduced glutathione (GSH) levels under PA treatment", "setting": "C2C12 myoblasts [1]; PA plus co-treatment, data not shown", "result": "restored normal"}, {"measurement": "p21 induction by PA", "setting": "C2C12 myoblasts [2]; PA + N-acetylcysteine (0.5, 2.5, 5 mM), data not shown", "result": "failed to prevent"}]}
{"smiles": "COc1ccc(C2=N[C@@H](c3ccc(Cl)cc3)[C@@H](c3ccc(Cl)cc3)N2C(=O)N2CCNC(=O)C2)c(OC(C)C)c1", "note": "[Nutlin3a]", "values": [{"measurement": "Pah", "setting": "AML-12 hepatocytes; FIG. 4o", "result": "downregulated"}, {"measurement": "hepatocyte senescence (i.e. p-p53 and p21)", "setting": "AML-12 hepatocytes; FIG. 4o", "result": "induced"}, {"measurement": "tyrosine production (tyrosine levels in media)", "setting": "AML-12 hepatocytes; FIG. 4p", "result": "depressed"}]}
